Measured values taken from patent US20150306096A1, “8'-HYDROXY-DIHYDROERGOTAMINE COMPOUNDS AND COMPOSITIONS” (MAP Pharmaceuticals, Inc., priority 2012, published 2015).
Read-outs that look alike come from different tables or passages of the source.

Columns and labels:
Calcitonin (AM1/AM2) = assay: cAMP HTRF assay; assay type: cell-based, human
Description: (§1) Additional receptor agonist/agonist activity assessments were performed using the 8′-OH DHE test compound. Table 12 contains a summary of the cell lines (CHO-K1/HEK293 transfected with relevant human receptor) and the assays performed to detect any agonist or antagonist activity.
Cells expressing the human recombinant receptor of interest were grown in media without antibiotic and detached by gentle flushing with PBS-EDTA (5 mM EDTA), recovered by centrifugation and resuspended in assay buffer (KRH: 5 mM KCl, 1.25 mM MgSO4, 124 mM NaCl, 25 mM HEPES, 13.3 mM glucose, 1.25 mM KH2PO4, 1.45 mM CaCl2, 0.5 g/L BSA). Dose response curves were performed in parallel with the reference compounds. For agonist tests (96-well plates), 12 μL of cells was mixed with 12 μL of the test 8′-OH DHE compound at increasing concentrations and then incubated for 30 minutes at RT. Lysis buffer was added and after one hour incubation, cAMP concentrations were determined according to the manufacturer specification with the HTRF kit. For antagonist tests (96-well plates), 12 μL of cells was mixed with 6 μL of the test 8′-OH DHE compound at increasing concentrations and then incubated for 10 minutes. […] Lysis buffer was added and after 1 hour incubation, cAMP concentrations were determined according to the manufacturer specification, with the HTRF kit. […]

[1] = system: Glutamate (mGlu3/mGlu5/mG1u7); assay: Glutamate receptor aequorin / cAMP assays; assay type: cell-based, human; settings: mGlu receptors
Description: Additional receptor agonist/agonist activity assessments were performed using the 8′-OH DHE test compound. Table 12 contains a summary of the cell lines (CHO-K1/HEK293 transfected with relevant human receptor) and the assays performed to detect any agonist or antagonist activity. […]
For agonist testing, 30 μL of cell suspension was mixed with 30 μL of the test 8′-OH DHE compound or reference agonist in a 384-well plate. The resulting emission of light was recorded using the FDSS 6000 luminometer. […] The resulting emission of light was recorded using the FDSS 6000 luminometer.
Cells expressing the human recombinant receptor of interest were grown in media without antibiotic and detached by gentle flushing with PBS-EDTA (5 mM EDTA), recovered by centrifugation and resuspended in assay buffer (KRH: 5 mM KCl, 1.25 mM MgSO4, 124 mM NaCl, 25 mM HEPES, 13.3 mM glucose, 1.25 mM KH2PO4, 1.45 mM CaCl2, 0.5 g/L BSA). […] Lysis buffer was added and after one hour incubation, cAMP concentrations were determined according to the manufacturer specification with the HTRF kit. […] Lysis buffer was added and after 1 hour incubation, cAMP concentrations were determined according to the manufacturer specification, with the HTRF kit. […]

Somatostatin (SST1~SST5) = assay: GTPγS assay; assay type: biochemical, human; settings: Somatostatin receptors
Description: as §1
Reagents used were the following: Assay buffer (20 mM HEPES, pH 7.4; 100 mM NaCl; 10 mg/mL saponin; 30 mM MgCl2); Membranes (recombinant human receptor membrane extracts were thawed on ice and diluted in assay buffer to give […] (10 μgμL) and kept on ice); GDP (diluted in assay buffer to give 30 μM solution (3 μM final concentration); beads (PVT-WGA (Amersham, RPNQ001), diluted in assay buffer at 25 mg/mL (0.25 mg/10 μL)); GTPγ^35S (Perkin Elmer, NEG030X), diluted in assay buffer to give 0.1 nM (final concentration); and ligand (agonist/antagonist diluted in assay buffer).
Membranes were mixed with GDP (1:1) and incubated for at least 15 minutes on ice. In parallel, GTPγ^35S was mixed with the beads (1:1) just before starting the reaction. […] The plates were then centrifuged for 10 minutes at 2,000 rpm and incubated at RT for 1 hour and counted for 1 min/well with a Perkin Elmer TopCount reader.

[2] = cited from earlier work

Compound | Activity (Agonism: EC50; Antagonism: IC50) (Calcitonin (AM1/AM2)) | Activity (Agonism: EC50; Antagonism: IC50) [1] | Activity (Agonism: EC50; Antagonism: IC50) (Somatostatin (SST1~SST5)) | fraction of dose extracted in the urine ([2]; IM administered dose) | bioavailability ([2]; IM) [%] | bioavailability ([2]; IN administration) | oral bioavailability ([2]; oral)
CN1C[C@H](C(=O)N[C@]2(C)O[C@@]3(O)[C@@H]4CCC(O)N4C(=O)[C@H](Cc4ccccc4)N3C2=O)C[C@@H]2c3cccc4[nH]cc(c34)C[C@H]21 (stereo partly shown) [8′-OH DHE, 8′-Hydroxy-Dihydroergotamine] | Inactive | Inactive | Inactive | – | – | – | –
CN1C[C@H](C(=O)N[C@]2(C)O[C@@]3(O)[C@@H]4CCCN4C(=O)[C@H](Cc4ccccc4)N3C2=O)C[C@@H]2c3cccc4[nH]cc(c34)C[C@H]21 [DHE, Dihydroergotamine] | – | – | – | 6-7% | 100 | about 40% | 1-3%
